Test results published in patent US20240207422A1, “NERVE TARGETING PEPTIDE CONJUGATES AND METHODS OF USE” (Alume Biosciences, Inc., priority 2022, published 2024).

Test system: excised human nerve tissue
Test: Phage display selection on excised human nerve tissue (Nerve2, Nerve3), NextGen sequence counts
Format: binding
Settings: unique sequence count (relative enrichment); peptides overlapping between Nerve2 and Plated Nerve2
Procedure: Several m13 phage libraries were constructed expressing randomized variants of a parent peptide (QVPWEEPYYVVKKS-SGGL; SEQ ID NO: 576). In particular, the first 14 amino acids of the parent peptide were randomized using degenerate oligonucleotide synthesis to obtain a diverse set of peptides with a mutation rate of about 50% per residue.
To accomplish this, synthesis was carried out by the XXK codon design approach, where X is any base and K is G or T. To bias synthesis towards the parent sequence, synthesis was carried out at each X position with a mixture of about 70%-85% of the parent nucleotide and 15-30% of the remaining 3 nucleotides. The resulting molecules were inserted into fADL-1e (Antibody Design Laboratories), which is a type 3 phage display vector having a cloning site on the N-terminal side of the full-length gene III protein. The fusion proteins are directed to the periplasm by the PelB leader peptide, which is inserted in the vector […].
Collectively, the phage display libraries used in the screens comprised about 600 million peptides, with sequencing analysis confirming a mutation rate of about 50% per residue.
Phage libraries were independently processed, as follows, with five biological samples: two independent samples of excised human nerve tissue, one sample of a human nerve extract, and two independent samples of human muscle tissue, as follows:
Excised Human Nerve Tissue: For each of the two independent samples, phage were processed through multiple cycles of selection, with representative phage being isolated and sequenced after each selection cycle. Specifically, for selection using human nerve tissue, a sample of […] tissue (2 mm by 2 mm) was washed prior to mixing and incubation with a phage library. After incubation, the mixture (containing mostly intact nerves with phage particles that had variable affinity for nerves) was centrifuged and the nerve pellet washed multiple times with PBS to remove phage with little or no affinity for nerve tissue. The pellet was homogenized and plated for titering and reamplification. Phage that were bound at each round were sequenced. NextGen sequencing of pools after 2, 3 and 4 rounds of selection were used to isolate candidate sequences that were further analyzed using bioinformatics.
NextGen sequencing of pools after 2, 3 and 4 rounds of selection were used to isolate candidate sequences from each of the five samples. These five data sets were then analyzed as described in the next section.
Peptide and vector sequences were translated starting at the first start codon in the nucleotide sequence. […] Trimmed peptides with identical sequences were combined and quantified according to their frequency (count).
Following processing, an R script was written to merge the unique peptide sequences (with counts 6 or greater) from the 5 different data sets to analyze the overlap between nerve and muscle binding activity.
For the single Nerve2, Nerve3, and Plated Nerve2 (pn2) subsets, the number of counts for each group was set at a threshold giving rise to at least 100 peptides. […] As highlighted in yellow in FIG. 1B, the representative group also included 6 unique peptides overlapping between nerve2 and nerve3, 200 unique peptides overlapping between nerve2 and plated nerve2 (at least 60 counts), 4 unique peptides overlapping between nerve3 and plated nerve2. Finally, as highlighted in green in FIG. 1B, the representative group also included […] common to the nerve2, nerve3, and plated nerve2 sets.

Substance | Count
107 (HVGWEQPYYVLRKS) [compound 107] | 112
108 (DFATEERRYAVPKY) [compound 108] | 111
109 (DVPLVKPHYGAVDS) [compound 109] | 111
110 (QFPSEASHYVVRNS) [compound 110] | 111
111 (HSRLHETSYVFNKP) [compound 111] | 110
112 (HVQRQETDYAAKRI) [compound 112] | 110
113 (NVLSEEPSSRDANV) [compound 113] | 110
114 (HLPFEAPYYAVKRS) [compound 114] | 109
115 (QLPGEEPTYVGSNS) [compound 115] | 109
116 (EVPVGDLSYVGKKY) [compound 116] | 108
117 (QFPLVQPNYLVEMP) [compound 117] | 108
118 (HVPGQDSYNVVNKF) [compound 118] | 107
119 (HVTYTEASVYKRTF) [compound 119] | 107
120 (QLEWEEPHYAARKS) [compound 120] | 107
121 (HYQSVKSYSVQKKI) [compound 121] | 105
122 (QLTSAEASYVGKQS) [compound 122] | 105
123 (HRPWEEPYYVAKQS) [compound 123] | 104
124 (LFASENPYNVKSKS) [compound 124] | 103
125 (SVPGEDPSQFGKTP) [compound 125] | 103
126 (HVPSEEPYKLDEQS) [compound 126] | 102
127 (QFRIEDSYDVANQS) [compound 127] | 102
128 (QIYWHESNYLVTKS) [compound 128] | 102
129 (HIPGDETSYVMKKY) [compound 129] | 100
130 (QSLSEEPQYVVTPS) [compound 130] | 98

Substance | Count
131 (HILLEEPSNVLNKR) [compound 131] | 96
132 (TLPVYVPYYVVNNT) [compound 132] | 96
133 (HMRSEQPYYGGKVS) [compound 133] | 95
134 (EVPRTERNFVVKNT) [compound 134] | 94
135 (HGAWEETHYVVIQS) [compound 135] | 94
136 (HGRSVESYDLVNKR) [compound 136] | 94
137 (QVTWGEPQYVVYKS) [compound 137] | 94
138 (QLPSGEPYSFVKES) [compound 138] | 93
139 (DVPLEDTYYRVKKY) [compound 139] | 91
140 (HVPFDKSSHLVKKY) [compound 140] | 90
141 (QFAWDSPYSRGKKT) [compound 141] | 90
142 (HVTWQQTKYVTNRS) [compound 142] | 89
143 (RFPLEEPNYFQTKS) [compound 143] | 89
144 (HVTWGKTYHLVTDS) [compound 144] | 88
145 (LVPWEEPGYFQNTS) [compound 145] | 88
146 (QYPREEPRHALKMS) [compound 146] | 88
147 (NVTFEQSSYVVTSP) [compound 147] | 87
148 (YVTSESPYYVHGQP) [compound 148] | 87
149 (HVSGTKPYHLVKKS) [compound 149] | 86
150 (EDVLHNAYHVETQF) [compound 150] | 85
151 (QFAWEHRDYVLQRS) [compound 151] | 85
152 (QVLWEERLYVVKNS) [compound 152] | 83
153 (RSTWEQSYTIVKES) [compound 153] | 83
154 (QMASKEPNYPVKNS) [compound 154] | 82

Substance | Count
155 (QNPAEEQYIVWNNS) [compound 155] | 82
156 (SHPWEKQYDVFNNS) [compound 156] | 81
157 (DVPWEEPYHVGNWR) [compound 157] | 80
158 (HVASEQPYYGVNRP) [compound 158] | 80
159 (HVLGEEPYYFVQHV) [compound 159] | 80
160 (QEPWDEFSYNVNAL) [compound 160] | 80
161 (QFRSGEAYVVVQTS) [compound 161] | 80
162 (QNAFSKPYNGVKPS) [compound 162] | 80
163 (QIESGEPYHDQKHP) [compound 163] | 79
164 (QVRWPEQYYVVNMG) [compound 164] | 79
165 (QYAREEPYYFMSYK) [compound 165] | 79
166 (QIPCQSDHNVVTNC) [compound 166] | 78
167 (DRLSDEPFKGMTHS) [compound 167] | 77
168 (DVRWSDPHDRITKS) [compound 168] | 77
169 (HLPWEGPEYLGKKS) [compound 169] | 77
170 (HVPRDEPQSFVHRS) [compound 170] | 77
171 (QFSSAEAYTVVNES) [compound 171] | 77
172 (QIPSHSPYYALNSS) [compound 172] | 77
173 (QQRLSASYQHVIKS) [compound 173] | 77
174 (HFEGEDLYDRVKSR) [compound 174] | 76
175 (HVTLEKPYDVATKS) [compound 175] | 76
176 (QLPGEHPYYPIKKP) [compound 176] | 76
177 (EALWYKHYYGVHKT) [compound 177] | 75
178 (HVVRHYPPHFVHKS) [compound 178] | 75

Substance | Count
179 (LIPSEERSYAVINT) [compound 179] | 75
180 (QHTHKQPFNVVKNY) [compound 180] | 75
181 (VVPSQGTYHVGMTS) [compound 181] | 75
182 (AVAWERPYYVVNHS) [compound 182] | 74
183 (DVLLARTYYFGEFP) [compound 183] | 74
184 (HFAGQEHLHFVEIS) [compound 184] | 74
185 (LFAWAEANNVMKNS) [compound 185] | 74
186 (SITNKQSVYVLKKS) [compound 186] | 73
187 (HVQSANPYYDVRNS) [compound 187] | 72
188 (HVSFDEPYYYVKKS) [compound 188] | 72
189 (QDYWAKPSYIVKHS) [compound 189] | 72
190 (QISLTEATLVVRKS) [compound 190] | 72
191 (DVLWEEPRYFVNNS) [compound 191] | 71
192 (HAHGQETYFLVKQS) [compound 192] | 71
193 (HFALQDPYQVFKKT) [compound 193] | 71
194 (QYPAERPTFDVTNA) [compound 194] | 71
195 (SLPMEERYYAVRTA) [compound 195] | 71
196 (DVEWEEPYYFLEKS) [compound 196] | 70
197 (DVTWEEPYYAVKNS) [compound 197] | 69
198 (EHPRVESVYLFPHT) [compound 198] | 69
199 (HDSLDLHYYAMHES) [compound 199] | 69
